Test results from patent US7727972B2, “Methods for determining absorption of cobalamin or analogues thereof” (DrugTech Corporation, priority 2004, dated 2010).

Test system: Anti haptocorrin antibodies (ELISA)
Assay: Cross-reactivity of the haptocorrin ELISA towards other cobalamin binding proteins
Set-up: species or system rabbit
Conditions: 60 nmol/L in the assay mixture
Description: Antibodies. Anti haptocorrin was produced by DakoCytomation A/S, Denmark by immunising rabbits with 200 μg pure haptocorrin produced as previously described (12) and deglycosylated as described above. The gamma globulin fraction was pre-pared (13) from serum obtained after 7 immunisations.
ELISA. The principle of the ELISA assay used was an immobilised capture antibody (0.1 ug gamma globulin/well, rabbit nr F7773) catching the analyte and a biotinylated detection antibody (gamma globulin 3 ug/L, rabbit nr 7772) visualised by avidin/Horse Radish Peroxidase (HRP). Colour development by addition of 3,3′,5,5′-tetramethyl-benzidin was proportional to the concentration of analyte. The assay procedure was as previously described for transcobalamin (14, 15). In brief, calibrator, sample or control (100 μL, final dilution 1:30) was incubated for 1 hour at room temperature prior to washing and incubation for 30 min with the biotinylated detection antibody. The attached biotinylated antibody was detected employing avidin/HRP and colour development was determined by measuring the absorbance at 420 nm and correcting for the absorbance at 620 nm. The calibrator employed was deglycosylated pure human haptocorrin. All samples were run in true duplicates, where deglycosylation was performed on two independent samples.
Samples. […]

intrinsic factor: cobalamin binding protein; pure IF dissolved in phosphate buffer 0.1 M containing albumin 0.1%
cross-reactivity in haptocorrin ELISA: No cross-reactivity
